Like-named read-outs stand apart in the source and are kept apart here.
Experiments:
porcine retinal arteries = experiment: small vessel myography of wall tension in isolated retinal artery segments pre-contracted with U-46619; format: cell-based; settings: for vasodilation in a single representative experiment, percent of maximum contraction / mean dilation as percentage of the maximum contraction induced by U-46619: single dose of 10^−3 M; for vasodilation in a single representative experiment, percent of maximum contraction: pre-contracted with 10^−6 M U-46619; for mean dilation as percentage of the maximum contraction induced by U-46619: mean ± SEM; for EC50: Sus scrofa, best fit to concentration-response curves, arteries pre-contracted with 10^−6 M U-46619, read-out: mean EC50 of vasodilation; for wall tension reached after dilation: final level (slower phase for compound 4); for peak wall tension after U-46619: 10^−6 M
hCA IV = biological target: T1, hCA IV (Homo sapiens, UniProt P22748); experiment: stopped flow CO2 hydrase assay, hCA IV; format: biochemical; settings: mean from 3 assays, errors ± 5%–10%
T1 construct: made in house

hCA II [1] = biological target: T2, hCA II (Homo sapiens, UniProt P00918); experiment: stopped flow CO2 hydrase assay, hCA II; format: biochemical; settings: mean from 3 assays, errors ± 5%–10%
T2 construct: made in house

hCA I [2] = biological target: T3, hCA I (Homo sapiens, UniProt P00915); experiment: stopped flow CO2 hydrase assay, hCA I; format: biochemical; settings: mean from 3 assays, errors ± 5%–10%
T3 construct: made in house

hCA IX = biological target: T4, hCA IX (Homo sapiens, UniProt Q16790); experiment: stopped flow CO2 hydrase assay, hCA IX; format: biochemical; settings: mean from 3 assays, errors ± 5%–10%
T4 construct: made in house

hCA XII = biological target: T5, hCA XII (Homo sapiens, UniProt O43570); experiment: stopped flow CO2 hydrase assay, hCA XII; format: biochemical
T5 construct: made in house

hCA I [3] = biological target: T3, hCA I; settings: stopped flow; cited from earlier work
hCA II [4] = biological target: T2, hCA II; design: method as in PMID 16996620; settings: stopped flow; cited from earlier work

T3 sequence (P00915 whole entry): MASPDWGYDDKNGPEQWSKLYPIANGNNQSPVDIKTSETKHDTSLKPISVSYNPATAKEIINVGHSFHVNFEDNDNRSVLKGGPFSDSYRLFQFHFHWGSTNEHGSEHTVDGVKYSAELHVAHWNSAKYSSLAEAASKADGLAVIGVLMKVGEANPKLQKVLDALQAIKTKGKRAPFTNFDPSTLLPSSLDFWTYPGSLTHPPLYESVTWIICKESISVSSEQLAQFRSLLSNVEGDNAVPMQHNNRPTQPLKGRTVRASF
T1 sequence (P22748 19-312): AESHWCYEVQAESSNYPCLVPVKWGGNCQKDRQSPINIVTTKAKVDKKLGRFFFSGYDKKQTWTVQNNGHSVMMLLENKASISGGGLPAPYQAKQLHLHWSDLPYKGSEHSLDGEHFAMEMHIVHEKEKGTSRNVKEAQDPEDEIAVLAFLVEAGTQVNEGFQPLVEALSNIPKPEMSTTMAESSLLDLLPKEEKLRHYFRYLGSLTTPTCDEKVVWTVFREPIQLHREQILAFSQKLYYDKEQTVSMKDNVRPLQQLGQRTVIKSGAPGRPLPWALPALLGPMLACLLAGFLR
T5 sequence (O43570 25-354): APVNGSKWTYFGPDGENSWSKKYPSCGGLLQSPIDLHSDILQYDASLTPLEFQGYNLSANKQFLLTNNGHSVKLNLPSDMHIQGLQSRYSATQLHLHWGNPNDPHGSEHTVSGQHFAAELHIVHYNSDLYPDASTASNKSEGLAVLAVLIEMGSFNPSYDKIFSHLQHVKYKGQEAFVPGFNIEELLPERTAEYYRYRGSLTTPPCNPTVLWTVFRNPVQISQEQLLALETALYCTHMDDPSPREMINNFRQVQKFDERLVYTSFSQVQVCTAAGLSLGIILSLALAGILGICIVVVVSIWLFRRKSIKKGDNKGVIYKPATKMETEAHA

CCN[C@H]1C[C@H](C)S(=O)(=O)c2sc(S(N)(=O)=O)cc21 [Compound 2, Dorzolamide, reference compound]
vasodilation in a single representative experiment, percent of maximum contraction (porcine retinal arteries; one vessel): 33%
mean dilation as percentage of the maximum contraction induced by U-46619 (porcine retinal arteries): 69.7% ± 5.7%

NS(=O)(=O)c1nnc(NS(=O)(=O)c2ccccc2)s1 [Compound 1, Benzolamide, reference compound]
final dilation when added after DZA dilation had reached a steady level (porcine retinal arteries; 10^−3 M BZA added on top of 10^−3 M DZA, one vessel (Figure 2B)): 100%
EC50 (porcine retinal arteries): 84.3 µM
vasodilation in a single representative experiment, percent of maximum contraction (porcine retinal arteries; one vessel): almost complete inhibition
mean dilation as percentage of the maximum contraction induced by U-46619 (porcine retinal arteries): 78.4% ± 8.5%
Ki (hCA IV): 0.012 µM

C#CCNc1ccc2c(C)cc(=O)oc2c1 [Compound 6]
Ki (hCA II [1]): > 10 µM
EC50 (porcine retinal arteries): 101 µM
vasodilation in a single representative experiment, percent of maximum contraction (porcine retinal arteries; one vessel): 96.8%
mean dilation as percentage of the maximum contraction induced by U-46619 (porcine retinal arteries): 99.5% ± 1.2%
Ki (hCA I [2]): > 10 µM
Ki (hCA IX): 0.474 µM
Ki (hCA XII; mean from 3 assays, errors ± 5%–10%): 0.0445 µM

C#CCOc1ccc2ccc(=O)oc2c1 [Compound 5]
wall tension reached after dilation (porcine retinal arteries; 10^−3 M, one vessel): 0.77 mN/mm
EC50 (porcine retinal arteries): 4.12 µM
vasodilation in a single representative experiment, percent of maximum contraction (porcine retinal arteries; one vessel): 140%
mean dilation as percentage of the maximum contraction induced by U-46619 (porcine retinal arteries): 116.5% ± 1.7%
Ki (hCA I [3]): > 10 µM
Ki (hCA IV): 0.0764 µM
times less effective than 4 against hCA XII (hCA XII; ratio of KI values versus compound 4): 12.9 times
Ki (hCA II [4]): > 10 µM

C#CCOc1ccc2oc(=O)ccc2c1 [Compound 4]
wall tension after initial very fast phase of dilation (porcine retinal arteries; 10^−3 M, one vessel, peak constriction 1.63 mN/mm (Figure 3B)): about 0.66 mN/mm
wall tension reached after dilation (porcine retinal arteries; 10^−3 M, one vessel): about 0.36 mN/mm
EC50 (porcine retinal arteries): 134 µM
vasodilation in a single representative experiment, percent of maximum contraction (porcine retinal arteries; one vessel): 101%
mean dilation as percentage of the maximum contraction induced by U-46619 (porcine retinal arteries): 98.8% ± 6.1%

C#CCN(CC#C)CCc1ccc(S(N)(=O)=O)cc1 [Compound 3]
Ki (hCA II [1]): 0.0058 µM
EC50 (porcine retinal arteries): 188 µM
vasodilation in a single representative experiment, percent of maximum contraction (porcine retinal arteries; one vessel): 91%
mean dilation as percentage of the maximum contraction induced by U-46619 (porcine retinal arteries): 102.2% ± 3.7%
Ki (hCA I [2]): 4.01 µM
Ki (hCA IX): 0.0557 µM

CCCCC[C@H](O)/C=C/[C@@H]1[C@@H](C/C=C\CCCC(=O)O)[C@H]2CO[C@@H]1C2 [Compound U-46619, 9,11-dideoxy-9 α,11α methanoepoxy prostaglandin F2α, reference compound]
peak wall tension after U-46619 (porcine retinal arteries; Figure 2A, baseline 0.4 mN/mm): about 1.75 mN/mm
peak wall tension after U-46619 (porcine retinal arteries; Figure 3A, baseline 0.6 mN/mm): 2.4 mN/mm
peak wall tension after U-46619 (porcine retinal arteries; Figure 3B, baseline about 0.38 mN/mm): 1.63 mN/mm
peak wall tension after U-46619 (porcine retinal arteries; Figure 4A, baseline 1.54 mN/mm): 3.38 mN/mm
peak wall tension after U-46619 (porcine retinal arteries; Figure 4B, baseline 0.95 mN/mm): 2.21 mN/mm
